From ChEMBL document CHEMBL5537156, “Discovery and Optimization of WDR5 Inhibitors via Cascade Deoxyribonucleic Acid-Encoded Library Selection Approach” (J Med Chem, 2024)

How the values were obtained:
[1] = molecular target: Histone-lysine N-methyltransferase 2A/WDR5 (Homo sapiens, UniProt P61964); assay: Inhibition of MLL1/WDR5 (unknown origin) protein-protein interaction incubated for 60 mins by HTRF analysis; assay type: protein assay
[2] = test system: MV4-11; assay: Antiproliferative activity against human MV4-11 cells harboring MLL-r assessed as cell growth inhibition incubated for 5 days by CCK-8 assay; assay type: functional, cell-based
[3] = test system: K562; assay: Antiproliferative activity against human K562 cells assessed as cell growth inhibition incubated for 5 days by CCK-8 assay; assay type: functional, cell-based

IC50 [1] [µM]	IC50 ([2]; Homo sapiens, MV4-11, 120 h) [µM]	IC50 ([3]; Homo sapiens, K562, 120 h) [µM]	IC50 ([2]; mv4-11) [µM]	IC50 ([3]; k562) [µM]	Structure (SMILES)
0.0155	5.7	7.1			Cc1ccc(CO)cc1-c1cc(NCc2nc[nH]c2C)cc2c1CCN(Cc1ccc(Cl)cc1)C2=O
0.0405	3.4	4.9			CSc1ccccc1-c1cc(NCc2nc[nH]c2C)cc2c1CCN(Cc1ccc(Cl)cc1)C2=O
0.0269	2.3	3.5			CSc1cc(F)ccc1-c1cc(NCc2nc[nH]c2C)cc2c1CCN(Cc1ccc(Cl)cc1)C2=O
0.0395	3.5	4			CSc1cc(F)ccc1-c1cc(NCc2nc[nH]c2C)cc2c1CCN(CCc1ccc(Cl)cc1)C2=O
0.0416	4.8	4.7			CSc1ccccc1-c1cc(NCc2nc[nH]c2C)cc2c1CCN(CCc1ccc(Cl)cc1)C2=O
0.319	3.93	3.03			CSc1ccccc1-c1cc(NCc2nc[nH]c2C)cc2c1CCCN(CCc1ccc(Cl)cc1)C2=O
0.0758	4.8	5.2			Cc1[nH]cnc1CNc1cc2c(c(-c3ccc(Cl)cc3C(F)(F)F)c1)CCN(CCc1ccc(Cl)cc1)C2=O
0.0172	6.2	3.4			Cc1ccc(CO)cc1-c1cc(NCc2nc[nH]c2C)cc2c1CCN(CCc1ccc(Cl)cc1)C2=O

The next lines start with the compound.

Structure (SMILES)	IC50 [1] [µM]	IC50 ([2]; Homo sapiens, MV4-11, 120 h) [µM]	IC50 ([3]; Homo sapiens, K562, 120 h) [µM]	IC50 ([2]; mv4-11) [µM]	IC50 ([3]; k562) [µM]
Cc1[nH]cnc1CNc1cc(Br)cc(C(=O)N[C@H](Cc2ccc(Cl)cc2)C(=O)NC2CC2)c1	0.0324				
COC(=O)[C@@H](Cc1ccc(Cl)cc1)NC(=O)c1cc(NCc2nc[nH]c2C)cc(-c2ccccc2SC)c1		3.9	3		
COc1cc(CN2CCc3c(cc(Cn4ccn(C)c4=N)cc3-c3ccc(F)cc3C)C2=O)cc(OC)c1	0.0068	0.17	3.6		
Cc1[nH]cnc1CNc1cc(Br)cc(C(=O)NCCc2ccc(Cl)cc2)c1	0.221				
Cc1[nH]cnc1CNc1cc(Br)cc(C(=O)N[C@H](Cc2ccc(Cl)cc2)C(=O)O)c1	0.05				
CNC(=O)[C@@H](Cc1ccc(Cl)cc1)NC(=O)c1cc(NCc2nc[nH]c2C)cc(-c2ccc(C(C)(F)F)cc2)c1	0.149				
CNC(=O)[C@@H](Cc1ccc(Cl)cc1)NC(=O)c1cc(NCc2nc[nH]c2C)cc(-c2ccc(Cl)cc2C(F)(F)F)c1	0.0098	6.2	3.43	4.13	4.9
CNC(=O)[C@@H](Cc1ccc(Cl)cc1)NC(=O)c1cc(Br)cc(NCc2nc[nH]c2C)c1	0.0252				
CNC(=O)[C@@H](Cc1ccc(Cl)cc1)NC(=O)c1cc(NCc2nc[nH]c2C)cc(-c2ccccc2SC)c1	0.0113	1.9	1.1		
Cc1[nH]cnc1CNc1cc(C(=O)N[C@H](Cc2ccc([N+](=O)[O-])cc2)C(=O)O)ccc1F	0.239				
Cc1[nH]cnc1CNc1cc(C(=O)N[C@H](Cc2ccc(Cl)cc2)C(=O)O)ccc1F	0.0846				
CNC(=O)[C@@H](Cc1ccc(Cl)cc1)NC(=O)c1cc(NCc2nc[nH]c2C)cc(-c2ccccc2C2CC2)c1	0.0188				
CNC(=O)[C@@H](Cc1ccc(Cl)cc1)NC(=O)c1cc(NCc2nc[nH]c2C)cc(-c2cc(CO)ccc2C)c1	0.0086	5	12.2		
COC(=O)[C@@H](Cc1ccc(Cl)cc1)NC(=O)c1cc(NCc2nc[nH]c2C)cc(-c2cc(CO)ccc2C)c1		5.5	4.9		
